Values quoted from earlier work as cited in patent US12435094B1, “Methods of preparing isomers, analogs, and synthetic derivatives from akuamma seeds” (priority 2024, dated 2025).

What was measured:
mu opioid receptor (μOR) = mu opioid receptor (μOR) (Homo sapiens, UniProt P35372); conditions: background statement, no data shown
[1] = test system: animal models of antinociception; conditions: background statement, no data shown

Chain of mu opioid receptor (μOR) (P35372 whole entry, species assumed): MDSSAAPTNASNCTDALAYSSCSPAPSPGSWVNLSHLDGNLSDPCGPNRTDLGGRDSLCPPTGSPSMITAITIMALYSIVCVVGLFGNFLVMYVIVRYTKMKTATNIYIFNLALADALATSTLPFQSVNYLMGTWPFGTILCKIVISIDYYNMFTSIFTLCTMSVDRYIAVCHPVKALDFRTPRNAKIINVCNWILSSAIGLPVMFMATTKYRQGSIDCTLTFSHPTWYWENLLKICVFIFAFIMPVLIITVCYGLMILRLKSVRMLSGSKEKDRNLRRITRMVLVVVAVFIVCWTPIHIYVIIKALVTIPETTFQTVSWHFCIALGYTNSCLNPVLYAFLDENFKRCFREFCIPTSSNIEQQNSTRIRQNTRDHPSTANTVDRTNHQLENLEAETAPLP

Compound | agonism of the mu opioid receptor (μOR) (mu opioid receptor (μOR)) | effects in animal models of antinociception [1]
C/C=C1/CN2CC[C@@]34c5ccccc5N(C)[C@]35OCC4(C(=O)OC)[C@@H]1C[C@H]25 [pseudoakuammigine, Pseudoakuammigine] | weak agonists | minimal effects
Akuammine | weak agonists | minimal effects
